The values that follow come from paper PMC8864717 (Chemical Science, 2021).

For data set [1] the following is noted: cited from earlier work.
Data set [2] concerns SARS-CoV-2. It counts as in vivo, golden Syrian hamster.
Data set [3] deals with SARS-CoV-2. It counts as cell-based. Conditions: CBS 1000 μM, NAC 1000 μM, CBS 1000 μM + 3NAC 3000 μM, non-treated 64.5%.
The target of data set [4] is SARS-CoV-2 M^pro (Severe acute respiratory syndrome coronavirus 2, UniProt P0DTD1). It counts as biochemical. The settings on record: at comparable concentrations.
For data set [5], the target named is SARS-CoV-2 PL^pro (Severe acute respiratory syndrome coronavirus 2, UniProt P0DTD1). It counts as biochemical. The settings on record: at comparable concentrations.
Data set [6] deals with SARS-CoV-2. The data set can be described thus: Viral load reduction assay, SARS-CoV-2 in Vero E6 cells. It counts as cell-based. Conditions: Vero E6, up to 2000 μM.
A short description of data set [7]: Ex vivo everted gut sac model. It counts as in vitro ADME. Conditions: rat duodenum, within 60 min, CBS 200 μM, pH 7.4.
The test system of data set [8] is Caco-2 cell monolayer. The settings on record: CBS 150 μM, without or with 10NAC 1.5 mM.
The conditions of data set [9]: cited from earlier work. This is another data set of the same source.
For data set [10] the following is noted: SD rats.
For data set [11] the following is noted: pH 9.2, with NAC.
Data set [12] deals with ACE2 (Homo sapiens, UniProt Q9BYF1). The data set can be described thus: ACE2 activity inhibition assay. It counts as biochemical.
Sequence of ACE2 (Q9BYF1 18-805): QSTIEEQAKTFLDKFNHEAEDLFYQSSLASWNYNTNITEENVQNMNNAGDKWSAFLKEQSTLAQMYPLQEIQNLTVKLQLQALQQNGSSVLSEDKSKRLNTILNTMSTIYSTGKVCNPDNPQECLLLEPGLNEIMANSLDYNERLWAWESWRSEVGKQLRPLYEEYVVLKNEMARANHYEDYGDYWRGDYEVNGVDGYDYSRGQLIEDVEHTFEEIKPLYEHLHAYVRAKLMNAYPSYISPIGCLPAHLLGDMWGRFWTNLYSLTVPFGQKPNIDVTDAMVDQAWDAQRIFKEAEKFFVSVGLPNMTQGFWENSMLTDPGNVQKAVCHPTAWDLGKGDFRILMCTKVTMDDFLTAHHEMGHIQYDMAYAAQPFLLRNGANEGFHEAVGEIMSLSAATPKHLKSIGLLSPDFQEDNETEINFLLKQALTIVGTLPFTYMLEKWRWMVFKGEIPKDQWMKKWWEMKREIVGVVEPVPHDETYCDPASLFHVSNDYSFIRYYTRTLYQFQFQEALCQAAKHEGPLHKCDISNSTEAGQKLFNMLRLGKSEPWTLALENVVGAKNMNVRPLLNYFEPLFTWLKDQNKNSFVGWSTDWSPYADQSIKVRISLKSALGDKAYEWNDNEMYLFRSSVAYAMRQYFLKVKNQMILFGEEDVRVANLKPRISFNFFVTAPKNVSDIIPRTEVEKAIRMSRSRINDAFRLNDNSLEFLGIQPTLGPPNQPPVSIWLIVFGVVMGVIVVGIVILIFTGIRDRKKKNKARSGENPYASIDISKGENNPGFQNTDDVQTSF
Data set [13] in a line: Blood bismuth concentration after oral administration in mice. It counts as in vivo. Conditions: Balb/c mice, oral CBS 150 mg kg^-1 (NAC 180 or 610 mg kg^-1).
The test system of data set [14] is SARS-CoV-2. Conditions: read-out: EC50, SARS-CoV-2; cited from earlier work.
Setting [15] is: single oral dose CBS 150 mg/kg, NAC 610 mg/kg, n = 5.

Where two headings read alike, the source gives them in different places.

Regarding `O=[N+]([O-])[O-].O=[N+]([O-])[O-].O=[N+]([O-])[O-].O=[N+]([O-])[O-].[Bi+3].[Bi+3].[Bi+3].[Bi+3].[Bi+3].[O-2].[OH-].[OH-].[OH-].[OH-].[OH-].[OH-].[OH-].[OH-].[OH-]` [BSN, bismuth subnitrate], the “absorption of bismuth in the rat small intestine” value in data set [1] is reported as “lower than 1%”.
Turning to `CNC(=C[N+](=O)[O-])NCCSCc1ccc(CN(C)C)o1.O=C([O-])CC(O)(CC(=O)[O-])C(=O)[O-].[Bi+3]` [RBC, ranitidine bismuth citrate], the “cumulative permeated bismuth, PAMPA” value was found to be 19.77 ng cm^−2 (iso-pH 1.2, in the presence of 10 mol eq. NAC) and 15.24 ng cm^−2 (iso-pH 1.2, without NAC).
For the compound `CC(=O)N[C@@H](CS)C(=O)O` [NAC, N-acetyl-L-cysteine], in data set [2] (hamster, in vivo, po), the “SARS-CoV-2-NP antigen signal in alveolar tissue of hamster lungs” value is 85.67(±11.59) NP^+ cells per view and the “lung pathology” value is listed as “partially relieve lung pathology”. For the same compound, the “lung viral load versus vehicle group” value in data set [2] (oral, CBS 300 mg kg^-1 or NAC 370 mg kg^-1, day -2 to 1, […]) is “no statistically significant difference”. In addition, the “viral NP antigen in infected Vero E6 cells” value in [3] is reported as 59.75%. Also, the “inhibitory activity on SARS-CoV-2 M^pro” value in [4] is “negligible inhibitory activity”. For the same compound, the “inhibitory activity on SARS-CoV-2 PL^pro” value in data set [5] was “negligible inhibitory activity”. The “anti-SARS-CoV-2 activity of NAC alone, virus copies in supernatant” value in data set [6] was “negligible anti-SARS-CoV-2 activity”.
For the compound colloidal bismuth subcitrate [CBS], the “cumulative bismuth permeated, everted sac model” value in data set [7] was 14.68(±4.12) ng cm^−2. For the same compound, in data set [8], the “cellular accumulation of bismuth in Caco-2 monolayer” value is recorded as 0.33(±0.02) %. For the same compound, the “apparent permeability coefficient (Papp) through Caco-2 monolayer” value in data set [8] (pH 7.4) was 1.73(±0.02) × 10^−7 cm s^−1. For the same compound, the “SARS-CoV-2-NP antigen signal in alveolar tissue of hamster lungs” value in data set [2] (hamster, in vivo, po) was 68.00(±6.08) NP^+ cells per view. In [2] (oral treatment, end of experimental period), the “adverse clinical signs and symptoms of infected hamsters” value is recorded as “mildly mitigated”. The results for the solubility in water result in [9] (pH 3) and in [9] (pH 7) were “about 1 mg mL^−1” and more than 70 mg/mL, respectively. Moreover, in data set [3], the “viral NP antigen in infected Vero E6 cells” value came out at 37.25%. Further, the “absorption of bismuth in the rat small intestine” value in [1] is “lower than 1%”. The “bismuth accumulation in the kidney” value in data set [10] (24 hour after oral dose) was 6839.76(±1652.30) ng per tissue. Also, in data set [10] (24 hour after oral dose), the “bismuth accumulation in the lung” value is 552.15(±104.97) ng per tissue. Also, the “first peak value of blood bismuth level” value in data set [10] (oral CBS 150 mg kg^-1, at around 0.5 h) turned out to be 277.69 µg/L. The AUC0→12 h in data set [10] (setting [15]) is on record as 1316(±474.00) h μg L^−1. The “Cmax (blood bismuth)” value in data set [10] (setting [15]) is 447.06(±132.39) μg L^−1. The “cumulative permeated bismuth, PAMPA” value (iso-pH 1.2, without NAC) is 16.95 ng cm^−2. Moreover, in data set [11], the “hydrolysis of CBS at pH 9.2 in the presence of NAC” value is given as “prevent hydrolysis”. The “inhibition of ACE2 activity” value in data set [12] was “barely displayed anti-ACE2 potency”. For the same compound, the results for the blood bismuth concentration in data set [13] (0.5 hour) and in data set [13] (1 hour) were 225.75(±86.05) μg L^−1 and 87.27(±21.46) μg L^−1, respectively. Moreover, the EC50 (in general, the concentration that produces a half-maximal response) in data set [14] is 4.6 µM.
